Laboratory results as given in the NIST ThermoML archive (doi:10.1016/j.fluid.2014.07.036).

Assay: refractive index (other wavelength) (dimensionless); xn = mol fraction of the nth substance listed
Conditions: 85 kPa, Liquid, Wavelength=632.8 nm, minimum deviation angle

CCCCCCCC[n+]1ccn(C)c1.F[B-](F)(F)F [1-methyl-3-octylimidazolium tetrafluoroborate] + CCCCCO
Conditions	refractive index
281.39 K, x1 = 0.012	1.4139
281.39 K, x1 = 0.339	1.4262
282.13 K, x1 = 0.014	1.4137
282.13 K, x1 = 0.33	1.4257
282.87 K, x1 = 0.015	1.4135
282.87 K, x1 = 0.32	1.4252
283.57 K, x1 = 0.018	1.4134
283.57 K, x1 = 0.315	1.4248
284.24 K, x1 = 0.019	1.4132
284.24 K, x1 = 0.305	1.4243
284.89 K, x1 = 0.02	1.413
284.89 K, x1 = 0.295	1.4238
285.51 K, x1 = 0.021	1.4128
285.51 K, x1 = 0.285	1.4233
286.09 K, x1 = 0.021	1.4126
286.09 K, x1 = 0.278	1.4229
286.64 K, x1 = 0.023	1.4125
286.64 K, x1 = 0.268	1.4224
287.13 K, x1 = 0.025	1.4124
287.13 K, x1 = 0.257	1.4219
287.58 K, x1 = 0.026	1.4123
287.58 K, x1 = 0.246	1.4214
287.98 K, x1 = 0.029	1.4123
287.98 K, x1 = 0.238	1.421
288.34 K, x1 = 0.03	1.4122
288.34 K, x1 = 0.23	1.4206
288.64 K, x1 = 0.032	1.4122
288.64 K, x1 = 0.224	1.4203
288.88 K, x1 = 0.034	1.4122
288.88 K, x1 = 0.217	1.42
289.09 K, x1 = 0.035	1.4122
289.09 K, x1 = 0.214	1.4198
289.29 K, x1 = 0.038	1.4123
289.29 K, x1 = 0.207	1.4195
289.44 K, x1 = 0.039	1.4123
289.44 K, x1 = 0.203	1.4193
289.63 K, x1 = 0.041	1.4123
289.63 K, x1 = 0.196	1.419
289.73 K, x1 = 0.042	1.4123
289.73 K, x1 = 0.191	1.4188
289.86 K, x1 = 0.044	1.4124
289.86 K, x1 = 0.19	1.4187
289.98 K, x1 = 0.047	1.4125
289.98 K, x1 = 0.186	1.4185
290.07 K, x1 = 0.05	1.4126
290.07 K, x1 = 0.181	1.4183
290.16 K, x1 = 0.052	1.4127
290.16 K, x1 = 0.179	1.4182
290.25 K, x1 = 0.055	1.4128
290.25 K, x1 = 0.175	1.418
290.31 K, x1 = 0.059	1.413
290.31 K, x1 = 0.173	1.4179
290.38 K, x1 = 0.062	1.4131
290.38 K, x1 = 0.168	1.4177
290.43 K, x1 = 0.066	1.4133
290.43 K, x1 = 0.166	1.4176
290.49 K, x1 = 0.069	1.4134
290.49 K, x1 = 0.161	1.4174
290.49 K, x1 = 0.598	1.4284
290.5 K, x1 = 1	1.4338
290.52 K, x1 = 0.071	1.4135
290.52 K, x1 = 0.156	1.4172
290.56 K, x1 = 0.076	1.4137
290.56 K, x1 = 0.1	1.4148
290.56 K, x1 = 0.151	1.417
290.59 K, x1 = 0.797	1.4313
290.59 K, x1 = 0.898	1.4327
290.6 K, x1 = 0.078	1.4138
290.6 K, x1 = 0.147	1.4168
290.61 K, x1 = 0.08	1.4139
290.61 K, x1 = 0.144	1.4167
290.65 K, x1 = 0.085	1.4141
290.65 K, x1 = 0.137	1.4164
290.66 K, x1 = 0.087	1.4142
290.66 K, x1 = 0.132	1.4162
290.67 K, x1 = 0.089	1.4143
290.67 K, x1 = 0.091	1.4144
290.67 K, x1 = 0.128	1.416
290.67 K, x1 = 0.13	1.4161
290.67 K, x1 = 0.697	1.4299
290.68 K, x1 = 0.094	1.4145
290.68 K, x1 = 0.096	1.4146
290.68 K, x1 = 0.098	1.4147
290.68 K, x1 = 0.118	1.4156
290.68 K, x1 = 0.121	1.4157
290.68 K, x1 = 0.123	1.4158
290.68 K, x1 = 0.125	1.4159
290.76 K, x1 = 0.498	1.4264
290.93 K, x1 = 0.396	1.4243
290.95 K, x1 = 0.2	1.4185
291.87 K, x1 = 1	1.4334
292.22 K, x1 = 0.898	1.4322
292.28 K, x1 = 0.598	1.4279
292.3 K, x1 = 0.797	1.4308
292.33 K, x1 = 0.498	1.4259
292.39 K, x1 = 0.697	1.4294
292.67 K, x1 = 0.396	1.4237
292.68 K, x1 = 0.2	1.4179
292.95 K, x1 = 0.1	1.414
293.43 K, x1 = 1	1.433
294.01 K, x1 = 0.498	1.4253
294.06 K, x1 = 0.898	1.4317
294.07 K, x1 = 0.598	1.4273
294.09 K, x1 = 0.797	1.4303
294.12 K, x1 = 0.697	1.4289
294.44 K, x1 = 0.396	1.423
294.76 K, x1 = 0.2	1.4171
295.04 K, x1 = 0.1	1.4132
295.05 K, x1 = 1	1.4325
295.73 K, x1 = 0.498	1.4248
295.84 K, x1 = 0.598	1.4268
295.89 K, x1 = 0.898	1.4312
295.91 K, x1 = 0.797	1.4299
295.92 K, x1 = 0.697	1.4283
296.31 K, x1 = 0.396	1.4224
296.55 K, x1 = 0.2	1.4165
296.68 K, x1 = 1	1.4321
297.32 K, x1 = 0.1	1.4124
297.61 K, x1 = 0.797	1.4294
297.68 K, x1 = 0.697	1.4278
297.69 K, x1 = 0.498	1.4241
297.71 K, x1 = 0.598	1.4262
297.84 K, x1 = 0.898	1.4306
298.31 K, x1 = 0.396	1.4217
298.41 K, x1 = 1	1.4316
298.67 K, x1 = 0.2	1.4158
299.26 K, x1 = 0.1	1.4116
299.58 K, x1 = 0.697	1.4273
299.58 K, x1 = 0.797	1.4288
299.74 K, x1 = 0.498	1.4235
299.74 K, x1 = 0.598	1.4256
299.92 K, x1 = 0.898	1.43
300.25 K, x1 = 1	1.4311
300.61 K, x1 = 0.396	1.4209
300.68 K, x1 = 0.2	1.4151
301.73 K, x1 = 0.1	1.4107
302.04 K, x1 = 1	1.4305

CCCCCCO [hexan-1-ol] + CCCCCCCC[n+]1ccn(C)c1.F[B-](F)(F)F
x2 = 0
Conditions	refractive index
293.99 K	1.4165
295.93 K	1.4156
297.36 K	1.4151
298.94 K	1.4145
300.69 K	1.4138
303.34 K	1.4128
304.77 K	1.4122
306.24 K	1.4117

CCCCCO [pentan-1-ol] + CCCCCCCC[n+]1ccn(C)c1.F[B-](F)(F)F
x2 = 0
Conditions	refractive index
290.68 K	1.4096
292.95 K	1.4087
295.03 K	1.4079
297.17 K	1.4071
299.35 K	1.4062
301.73 K	1.4053
